The values that follow come from patent publication US6245738A, “Cytokine restraining agents” (Trega Biosciences, Inc., priority 1994, dated 2001).

SMILES strings stand for the structures. Square brackets hold non-standard residues; d marks the D form. Peptide text beside a SMILES is read from it.

Test [1] has as its system interleukin-6 (IL-6). Put plainly: Reduction of LPS-induced interleukin-6 levels in mice, IL-6-specific ELISA. It is filed as in vivo, Balb/c mice. As to conditions: 300 μg/mouse (Table I), LPS treated mice; vs control mice. Here is the method: Balb/c mice were grouped and treated as described in Example III, above. Blood samples were obtained from the orbital sinus at various times up to six hours and serum was collected and diluted as described above. A 100 μl aliquot was assayed for IL-6 levels using an IL-6-specific ELISA by a modification of the method of Starnes et al., J. Immunol. 145:4185-4194 (1990), which is incorporated herein by reference.
The mean (+/-SEM) IL-6 level in six mice from each group was determined and the percent reduction in IL-6 was calculated.
For orientation: An ELISA detects its analyte on a solid surface through an enzyme-linked reagent.

For test [2], the system named is arachidonic acid-induced ear swelling. The test is described as follows: Arachidonic acid-induced ear swelling. It is filed as in vivo, female Balb/c mice. As to conditions: 100 μg/mouse ip, 30 min prior to AA; 60 min after AA application. Here is the method: Experiments were performed using female Balb/c mice weighing 18-23 grams. Saline or 100 μg EX-2 or EX-3 was administered ip, 30 min prior to topical application of arachidonic acid (AA). A 10 μl pipet was used to apply 10 μl AA solution (100 mg/ml ethanol; Calbiochem-Novabiochem; San Diego, Calif.) to the inner and outer surfaces of the right ear of each mouse. Ten μl ethanol, alone, was applied to the inner and outer surface of the left ear of each mouse. Ear thickness was measured with a hand-held spring loaded caliper immediately before and 60 min after AA application. Increase in ear thickness was calculated by subtracting the change observed in the control ear from the change observed in AA-treated ear. The value for each group (saline and control) is the average of the swelling observed in the individual mice in each group. The percent reduction of swelling is based on the swelling observed in the saline control group.

In test [3] the test system is TNF-α. Put plainly: Reduction of LPS-induced TNF-α levels in mice (ip peptide), plasma ELISA. In kind it is in vivo, Balb/c female mice. The following applies: 1 min before 5 mg/kg LPS ip, vs control mice. As for the experimental part: Balb/c female mice weighing approximately 20 g were placed into two groups, a control group and a treated group. Five mg/kg of LPS in 0.9% saline was administered by intraperitoneal (ip) injection into the control mice. Mice in the treated group were first injected ip with 30 μg EX-2 or 150 μg EX-3 in saline, then, one minute after EX-2 or EX-3 was administered, the mice received LPS as described for the control group.
Blood samples were collected from the orbital sinus of treated and control mice at various times up to four hours after LPS was administered. The plasma was separated by centrifugation at 3000×g for 5 min, then diluted with four volumes of 1× phosphate buffer saline (pH 7.4) containing 1% bovine serum albumin. A 100 μl sample of serum was assayed by ELISA for TNF-α (Genzyme; Cambridge Mass.).
The mean (+/-SEM) TNF-α level in six mice from each group was determined and the percent reduction in TNF levels was calculated.

Test [4] concerns LPS-induced lethality. The test is described as follows: Lipopolysaccharide-induced lethality (ip peptide). It is filed as in vivo, adult female Balb/c mice. As to conditions: 11 × 300 μg/mouse ip (3.3 mg total), every 4 hr; 0.6 mg LPS. Here is the method:
These experiments were performed based on information reported by Rivier et al., Endocrinology 125:2800-2805 (1989), which is incorporated herein by reference. Adult female Balb/c mice were provided food and water ad libitum. Mice were injected ip every four hours for 40 hr with 30 to 300 μg EX-2 or EX-3 in 0.2 ml saline (treated group) or with 0.2 ml saline, alone (control group) (10 mice per group). Immediately following the first injection, 0.6 mg LPS endotoxin in 0.2 ml saline was administered to each mouse. Following LPS injection, EX-2 or saline was administered to the treated mice or the control mice, respectively, every 4 hr for 36 hr.

The subject of test [5] is IL-1β-induced hyperalgesia. Put plainly: Interleukin-1β-induced hyperalgesia, paw pressure test. In kind it is in vivo, adult male Sprague-Dawley rats. As to conditions: 1 μg ip, 20 min before intraplantar IL-1β; 2 hr after IL-1. As for the experimental part: These experiments were performed using a modification of the methods described by Poole et al., Br. J. Pharmacol. 106:489-492 (1992); Follenfant et al., Br. J. Pharmacol. 98:41-43 (1989); and Randall and Sellito, Arch. Internatl. Pharmacodyn. 111:409-419 (1957), each of which is incorporated herein by reference. Adult male Sprague-Dawley rats (175-275 g) were tested for hyperalgesia by a paw pressure technique using variable pressure instrumentation (IITC Life Sciences; Woodland Hills, Calif.). Rats were acclimated to the housing environment and were handled for three days prior to beginning a training session. On the day before the hyperalgesia experiments was to begin, each rat was placed into a sock and two variable paw pressure tests were performed 15 min apart. […] Approximately 5-10% of the rats were non-responders and were eliminated from further experiments.
Animals that responded to the paw pressure were pretreated by ip injection of various concentrations of EX-2 in a volume of 1 ml/kg (treated) or saline, alone (control). After 20 min, 100 μl of IL-1β (1U/100 μl) was administered to rats via intraplantar injection. Two hr after IL-1 administration, rats were subjected to two additional paw pressure tests and the increase in mm Hg of pressure that could be applied to the EX-2-treated rats as compared to the control rats was determined.

In test [6] the test system is LPS-induced PMN infiltration in lungs. The test is described as follows: Adult respiratory distress syndrome: PMN count in broncho-alveolar lavage after intratracheal LPS. It is filed as in vivo, male Harlan Sprague-Dawley rats. The following applies: 100 μg/kg ip at 0, 2 and 4 hr; lavage at 6 hr after intratracheal LPS 5 mg/kg. As for the experimental part: These experiments were performed using a modification of the methods described by Ulich et al., Am. J. Pathol. 141:61-68 (1992) and by Wheelden et al., Lab. Animals 26:29-37 (1992), each of which is incorporated herein by reference. Male Harlan Sprague-Dawley rats were anesthetized using a mixture of 70 mg/kg ketamine and 6 mg/kg rompun injected ip. A 2-3 cm incision was made in the neck of each anesthetized rat and its trachea was exposed by blunt dissection of the surrounding soft tissue. The rats were suspended on a near vertical slab and intratracheal injections were performed by inserting into the exposed trachea, at a point 1 cm posterior to the larynx, a 25G×1/2 inch needle attached to a 1 cc syringe.
Each rat received 0.5 ml/kg of saline or 0.5 ml/kg of 10 mg/ml (5 mg/kg) LPS endotoxin via slow intratracheal administration. Immediately following administration of the LPS endotoxin, rats were injected ip with 1 ml/kg of either saline (control) or saline containing various concentrations of EX-2 (treated). The rats were maintained in the elevated position for 1-2 min to facilitate distribution of the LPS and saline into the lung. The incisions were closed and the rats were allowed to recover. […]
The total polymorphonuclear leukocytes (PMN; neutrophils) in the broncho-alveolar lavage fluid were counted in the EX-2-treated rats and compared with the number in the control rats.

Test [7] relates to TNF-α. The test is described as follows: LPS-induced TNF-α levels, orally administered peptide (gavage). It is filed as in vivo, Balb/c female mice. As to conditions: 1 min before 0.1 mg LPS ip. As for the experimental part: The ability of orally administered cytokine restraining agents to reduce LPS-induced TNF-α levels also was examined. Balb/c female mice (20 g) were administered 150 μg or 300 μg EX-2, EX-3, EX-4 or EX-5 in 100 μl saline by gavage. Control mice received 100 μl saline, alone. One minute later, 0.1 mg LPS was administered by ip injection. Samples were collected and TNF-α levels were determined as described in Example III, above.
The mean TNF-α levels in the mice from each group (n=9-20) was determined and the percent reduction in TNF-α levels was calculated.

For test [8], the system named is LPS-induced lethality. Put plainly: LPS-induced lethality, orally administered peptide (gavage). In kind it is in vivo, adult female Balb/c mice. The following applies: 0.6 mg LPS ip. As for the experimental part:
The LPS-induced lethality studies were performed based on information reported by Rivier et al., supra, 1989. Adult female Balb/c mice were provided food and water ad libitum. Mice were administered 150 μg or 300 μg EX-2, EX-3, EX-4 or EX-5 in 100 μl saline by gavage every 4 hr for 40 hr (total doses of 1.65 mg and 3.3 mg, respectively). Control mice received 100 μl saline, alone. Immediately following the first dose of cytokine restraining agent or saline, 0.6 mg LPS in 0.2 ml saline was administered by ip injection.

Where [9] appears, read: 3.3 mg total (300 μg by gavage every 4 hr for 40 hr).

On to `CCCC[C@H](NC(C)=O)C(=O)N[C@@H](CCC(N)=O)C(=O)N[C@@H](Cc1c[nH]cn1)C(=O)N[C@H](Cc1ccccc1)C(=O)N[C@@H](CCCNC(=N)N)C(=O)N[C@H](Cc1c[nH]c2ccccc12)C(=O)NCC(N)=O` [EX-2, Ac-Nle-Gln-His-(D)Phe-Arg-(D)Trp-Gly-NH2], for which, in test [1], the “Reduction in IL-6 levels” value came to 60%. The “Reduction in arachidonic acid-induced Ear Swelling” value in test [2] was 72%. Besides, in test [3] (30 μg/mouse ip), the “Reduction in TNF levels” value worked out at 50%. The “Inhibition of LPS-induced Lethality (increase in survival)” value in test [4] is recorded as 83%. Besides, the “Reduction in IL-1-induced Hyperalgesia (increase in tolerated paw pressure)” value in test [5] came to 125%. Moreover, the “Reduction in LPS-induced PMN Count” value in test [6] stood at 58%.

Consider `CC(=O)N[C@H](C(=O)N[C@@H](CCC(N)=O)C(=O)N[C@@H](Cc1c[nH]cn1)C(=O)N[C@H](Cc1ccccc1)C(=O)N[C@@H](CCCNC(=N)N)C(=O)N[C@H](Cc1c[nH]c2ccccc12)C(=O)NCC(N)=O)C1CCCCC1` [EX-3, Ac-(cyclohexyl)Gly-Gln-His-(D)Phe-Arg-(D)Trp-Gly-NH2], for which the “Reduction in arachidonic acid-induced Ear Swelling” value in test [2] amounted to 62%. For the same molecule, the “Reduction in TNF levels” value in test [3] (150 μg/mouse ip) is 56%. The “Inhibition of LPS-induced Lethality (increase in survival)” value in test [4] is given as 86%. Also, the “percent reduction in TNF-α levels, oral” value in test [7] (150 μg by gavage) was determined as 49%; in test [7] (300 μg by gavage), 40%.

On to `CC(=O)N[C@@H](Cc1c[nH]cn1)C(=O)N[C@H](Cc1ccccc1)C(=O)N[C@@H](CCCNC(=N)N)C(=O)N[C@H](Cc1c[nH]c2ccccc12)C(=O)NCC(N)=O` [EX-4, Ac-His-(D)Phe-Arg-(D)Trp-Gly-NH2] (Ac-H[dF]R[dW]G-NH2), for which the “increase in survival, oral” value in test [8] (setting [9]) worked out at 63%. Besides, the “percent reduction in TNF-α levels, oral” value in test [7] (300 μg by gavage) is 44%.

Consider `CC(=O)N[C@@H](Cc1c[nH]cn1)C(=O)N[C@H](Cc1ccccc1)C(=O)N[C@@H](CCCNC(=N)N)C(=O)N[C@H](Cc1c[nH]c2ccccc12)C(N)=O` [EX-5, Ac-His-(D)Phe-Arg-(D)Trp-NH2], for which the “increase in survival, oral” value in test [8] (1.65 mg total (150 μg by gavage every 4 hr for 40 hr)) is listed as 68%; in test [8] (setting [9]) it was 44%.
